# Test results: ChEMBL document CHEMBL4257449, “New N-(2-phenyl-4-oxo-1,3-thiazolidin-3-yl)-1,2-benzothiazole-3-carboxamides and acetamides as antimicrobial agents” (2017)
# Tests used:
# Penicillium ochrochloron [1] = assay: Antifungal activity against Penicillium ochrochloron ATCC 9112 after 72 hrs by serial dilution method; format: functional; details: ATCC 9112, 72 h
# Bacillus cereus [2] = assay: Antibacterial activity against Bacillus cereus after 24 hrs by microdilution method; format: functional
# Bacillus cereus [3] = assay: Bactericidal activity against Bacillus cereus incubated for 24 hrs followed by serial sub-cultivation and measured after 24 hrs by microdilution method; format: functional
# Micrococcus flavus [4] = assay: Antibacterial activity against Micrococcus flavus ATCC 10240 after 24 hrs by microdilution method; format: functional; details: ATCC 10240, 24 h
# Micrococcus flavus [5] = assay: Bactericidal activity against Micrococcus flavus ATCC 10240 incubated for 24 hrs followed by serial sub-cultivation and measured after 24 hrs by microdilution method; format: functional
# Staphylococcus aureus [6] = assay: Antibacterial activity against Staphylococcus aureus ATCC 6538 after 24 hrs by microdilution method; format: functional; details: ATCC 6538, 24 h
# Staphylococcus aureus [7] = assay: Bactericidal activity against Staphylococcus aureus ATCC 6538 incubated for 24 hrs followed by serial sub-cultivation and measured after 24 hrs by microdilution method; format: functional
# Listeria monocytogenes [8] = assay: Antibacterial activity against Listeria monocytogenes NCTC 7973 after 24 hrs by microdilution method; format: functional; details: NCTC 7973, 24 h
# Listeria monocytogenes [9] = assay: Bactericidal activity against Listeria monocytogenes NCTC 7973 incubated for 24 hrs followed by serial sub-cultivation and measured after 24 hrs by microdilution method; format: functional
# Escherichia coli [10] = assay: Antibacterial activity against Escherichia coli ATCC 35210 after 24 hrs by microdilution method; format: functional; details: ATCC 35210, 24 h
# Escherichia coli [11] = assay: Bactericidal activity against Escherichia coli ATCC 35210 incubated for 24 hrs followed by serial sub-cultivation and measured after 24 hrs by microdilution method; format: functional
# Enterobacter cloacae [12] = assay: Antibacterial activity against Enterobacter cloacae after 24 hrs by microdilution method; format: functional
# Enterobacter cloacae [13] = assay: Bactericidal activity against Enterobacter cloacae incubated for 24 hrs followed by serial sub-cultivation and measured after 24 hrs by microdilution method; format: functional
# Pseudomonas aeruginosa [14] = assay: Antibacterial activity against Pseudomonas aeruginosa ATCC 27853 after 24 hrs by microdilution method; format: functional; details: ATCC 27853, 24 h
# Pseudomonas aeruginosa [15] = assay: Bactericidal activity against Pseudomonas aeruginosa ATCC 27853 incubated for 24 hrs followed by serial sub-cultivation and measured after 24 hrs by microdilution method; format: functional
# Salmonella typhimurium [16] = assay: Antibacterial activity against Salmonella typhimurium ATCC 13311 after 24 hrs by microdilution method; format: functional, Salmonella enterica subsp. enterica serovar Typhimurium; details: Salmonella enterica, ATCC 13311, 24 h
# Salmonella typhimurium [17] = assay: Bactericidal activity against Salmonella typhimurium ATCC 13311 incubated for 24 hrs followed by serial sub-cultivation and measured after 24 hrs by microdilution method; format: functional, Salmonella enterica subsp. enterica serovar Typhimurium
# Aspergillus versicolor [18] = assay: Antifungal activity against Aspergillus versicolor ATCC 11730 after 72 hrs by serial dilution method; format: functional; details: ATCC 11730, 72 h
# Aspergillus fumigatus [19] = assay: Antifungal activity against Aspergillus fumigatus after 72 hrs by serial dilution method; format: functional
# Aspergillus fumigatus [20] = assay: Fungicidal activity against Aspergillus fumigatus incubated for 72 hrs followed by serial sub-cultivation for 72 hrs and measured after 72 hrs by serial dilution method; format: functional
# Aspergillus versicolor [21] = assay: Fungicidal activity against Aspergillus versicolor ATCC 11730 incubated for 72 hrs followed by serial sub-cultivation for 72 hrs and measured after 72 hrs by serial dilution method; format: functional
# Aspergillus ochraceus [22] = assay: Antifungal activity against Aspergillus ochraceus ATCC 12066 after 72 hrs by serial dilution method; format: functional; details: ATCC 12066, 72 h
# Aspergillus ochraceus [23] = assay: Fungicidal activity against Aspergillus ochraceus ATCC 12066 incubated for 72 hrs followed by serial sub-cultivation for 72 hrs and measured after 72 hrs by serial dilution method; format: functional
# Aspergillus niger [24] = assay: Antifungal activity against Aspergillus niger ATCC 6275 after 72 hrs by serial dilution method; format: functional; details: ATCC 6275, 72 h
# Aspergillus niger [25] = assay: Fungicidal activity against Aspergillus niger ATCC 6275 incubated for 72 hrs followed by serial sub-cultivation for 72 hrs and measured after 72 hrs by serial dilution method; format: functional
# Trichoderma viride [26] = assay: Antifungal activity against Trichoderma viride IAM 5061 after 72 hrs by serial dilution method; format: functional; details: IAM 5061, 72 h
# Trichoderma viride [27] = assay: Fungicidal activity against Trichoderma viride IAM 5061 incubated for 72 hrs followed by serial sub-cultivation for 72 hrs and measured after 72 hrs by serial dilution method; format: functional
# Talaromyces funiculosus [28] = assay: Antifungal activity against Penicillium funiculosum ATCC 36839 after 72 hrs by serial dilution method; format: functional; details: ATCC 36839, 72 h
# Talaromyces funiculosus [29] = assay: Fungicidal activity against Penicillium funiculosum ATCC 36839 incubated for 72 hrs followed by serial sub-cultivation for 72 hrs and measured after 72 hrs by serial dilution method; format: functional
# Penicillium ochrochloron [30] = assay: Fungicidal activity against Penicillium ochrochloron ATCC 9112 incubated for 72 hrs followed by serial sub-cultivation for 72 hrs and measured after 72 hrs by serial dilution method; format: functional
# Candida albicans [31] = assay: Antifungal activity against Candida albicans after 72 hrs by serial dilution method; format: functional
# Candida albicans [32] = assay: Fungicidal activity against Candida albicans incubated for 72 hrs followed by serial sub-cultivation for 72 hrs and measured after 72 hrs by serial dilution method; format: functional
SMILES,MIC (Penicillium ochrochloron [1]) [µM],MIC (Bacillus cereus [2]) [µM],MBC99.5 (Bacillus cereus [3]) [×10⁻² umol/ml],MIC (Micrococcus flavus [4]) [µM],MBC99.5 (Micrococcus flavus [5]) [×10⁻² umol/ml],MIC (Staphylococcus aureus [6]) [µM],MBC99.5 (Staphylococcus aureus [7]) [×10⁻² umol/ml],MIC (Listeria monocytogenes [8]) [µM],MBC99.5 (Listeria monocytogenes [9]) [×10⁻² umol/ml],MIC (Escherichia coli [10]) [µM],MBC99.5 (Escherichia coli [11]) [×10⁻² umol/ml],MIC (Enterobacter cloacae [12]) [µM],MBC99.5 (Enterobacter cloacae [13]) [×10⁻² umol/ml],MIC (Pseudomonas aeruginosa [14]) [µM],MBC99.5 (Pseudomonas aeruginosa [15]) [×10⁻² umol/ml],MIC (Salmonella typhimurium [16]) [µM],MBC99.5 (Salmonella typhimurium [17]) [×10⁻² umol/ml],MIC (Aspergillus versicolor [18]) [µM],MIC (Aspergillus fumigatus [19]) [µM],MFC99.5 (Aspergillus fumigatus [20]) [×10⁻² umol/ml],further results
O=C(NN1C(=O)CSC1c1ccc(Cl)cc1)c1nsc2ccccc12 (centres undefined),102,205,38.4,384,76.8,205,38.4,589,76.8,589,76.8,789,115.2,205,76.8,768,115.2,102,205,38.4,MFC99.5 (Aspergillus versicolor [21]): 20.5 ×10⁻² umol/ml; MIC (Aspergillus ochraceus [22]): 102 µM; MFC99.5 (Aspergillus ochraceus [23]): 20.5 ×10⁻² umol/ml; MIC (Aspergillus niger [24]): 102 µM; MFC99.5 (Aspergillus niger [25]): 20.5 ×10⁻² umol/ml; MIC (Trichoderma viride [26]): 25.6 µM; MFC99.5 (Trichoderma viride [27]): 5.12 ×10⁻² umol/ml; MIC (Talaromyces funiculosus [28]): 102 µM; MFC99.5 (Talaromyces funiculosus [29]): 20.5 ×10⁻² umol/ml; MFC99.5 (Penicillium ochrochloron [30]): 20.5 ×10⁻² umol/ml; MIC (Candida albicans [31]): 102 µM; MFC99.5 (Candida albicans [32]): 20.5 ×10⁻² umol/ml
O=C(NN1C(=O)CSC1c1ccc(F)cc1)c1nsc2ccccc12 (centres undefined),402,214,40.2,214,40.2,107,21.4,214,40.2,107,21.4,107,21.4,107,21.4,107,21.4,402,107,21.4,MFC99.5 (Aspergillus versicolor [21]): 80.4 ×10⁻² umol/ml; MIC (Aspergillus ochraceus [22]): 402 µM; MFC99.5 (Aspergillus ochraceus [23]): 80.4 ×10⁻² umol/ml; MIC (Aspergillus niger [24]): 402 µM; MFC99.5 (Aspergillus niger [25]): 80.4 ×10⁻² umol/ml; MIC (Trichoderma viride [26]): 402 µM; MFC99.5 (Trichoderma viride [27]): 80.4 ×10⁻² umol/ml; MIC (Talaromyces funiculosus [28]): 214 µM; MFC99.5 (Talaromyces funiculosus [29]): 53.6 ×10⁻² umol/ml; MFC99.5 (Penicillium ochrochloron [30]): 80.4 ×10⁻² umol/ml; MIC (Candida albicans [31]): 80 µM; MFC99.5 (Candida albicans [32]): 10.7 ×10⁻² umol/ml
